Measurements reported in ChEMBL document CHEMBL5052843, “Inhibitors of apol1 and methods of using same” (2020).

Columns and labels:
Apolipoprotein L1 = Apolipoprotein L1 (Homo sapiens, UniProt O14791); test: Inhibition of APOL1 G1 variant in human HEK293-T-REx cells measured by Thallium assay; assay type: cell-based
[1] = test system: Trypanosoma brucei brucei; test: Antitrypanosomal activity against Trypanosoma brucei brucei assessed as trypanosome lysis using recombinant APOL1 protein G1 variant and measured by Alamar blue based fluorescene assay; assay type: functional, organism-based

SMILES	IC50 (Apolipoprotein L1)	IC50 [1]
O=C(CCc1c(-c2cc(F)cc(F)c2)[nH]c2ccccc12)N[C@@H]1C(=O)NC[C@H]1O	250 nM	250 nM
COc1ccc(-c2[nH]c3ccccc3c2CCC(=O)N[C@@H]2C(=O)NC[C@H]2O)cc1	< 250 nM	< 250 nM
O=C(CCc1c(-c2cc(F)cc(F)c2)[nH]c2c(F)cc(F)cc12)N[C@@H]1C(=O)NC[C@H]1O	< 250 nM	250 nM
O=C(CCc1c(-c2ccc(F)cc2)[nH]c2c(F)cc(F)cc12)N[C@@H]1C(=O)NC[C@@H]1O	< 250 nM	< 250 nM
O=C(CCc1c(-c2ccc(OC(F)F)cc2)[nH]c2c(F)cc(F)cc12)N[C@@H]1C(=O)NC[C@H]1O	< 250 nM	< 250 nM
O=C(CCc1c(-c2ccc(F)cc2)[nH]c2ccc(F)cc12)N[C@H]1CCNC1=O	< 250 nM	< 250 nM
O=C(CCc1c(-c2ccc(F)cc2)[nH]c2ccccc12)N[C@@H]1C(=O)NC[C@H]1O	< 250 nM	< 250 nM
O=C(CCc1c(-c2ccccc2)[nH]c2c(F)cc(F)cc12)N[C@@H]1C(=O)NC[C@H]1O	< 250 nM	< 250 nM
O=C(CCc1c(-c2ccc(OC(F)(F)F)cc2)[nH]c2ccccc12)N[C@@H]1C(=O)NC[C@H]1O	< 250 nM	< 250 nM
Cc1ccc(-c2[nH]c3ccccc3c2CCC(=O)N[C@@H]2C(=O)NC[C@H]2O)cc1	< 250 nM	< 250 nM
O=C(CCc1c(-c2ccc(F)cc2)[nH]c2c(F)c(F)ccc12)N[C@@H]1C(=O)NC[C@H]1O	< 250 nM	< 250 nM
O=C(CCc1c(-c2ccc(F)cc2)[nH]c2c(F)cc(Br)cc12)N[C@H]1CCNC1=O	< 250 nM	< 250 nM
Cc1ccc(-c2[nH]c3ccccc3c2CCC(=O)N[C@@H]2C(=O)NC[C@H]2O)cc1F	< 250 nM	< 250 nM
O=C(CCc1c(-c2ccc(OC(F)F)cc2)[nH]c2c(F)cc(F)cc12)N[C@H]1CCNC1=O	< 250 nM	< 250 nM
Cc1cc(F)cc2c(CCC(=O)N[C@@H]3C(=O)NC[C@H]3O)c(-c3ccc(F)cc3)[nH]c12	< 250 nM	< 250 nM
[2H]C(C(=O)N[C@@H]1C(=O)NC[C@H]1O)C([2H])c1c(-c2ccc(F)cc2)[nH]c2c(F)cc(F)cc12 (stereo not given in full)	< 250 nM	< 250 nM
O=C(CCc1c(-c2ccc(F)cc2)[nH]c2c(OC(F)F)cc(F)cc12)N[C@@H]1C(=O)NC[C@H]1O	< 250 nM	250 nM
O=C(CCc1c(-c2ccccc2)[nH]c2c(F)c(F)ccc12)N[C@@H]1C(=O)NC[C@H]1O	< 250 nM	< 250 nM
O=C(CCc1c(-c2ccc(F)cc2)[nH]c2ccc(C(F)(F)F)cc12)N[C@@H]1C(=O)NC[C@H]1O	< 250 nM	< 250 nM
O=C(CCc1c(-c2ccc(F)cc2)[nH]c2c(F)cc(F)cc12)N[C@H]1C[C@@H](CO)NC1=O	> 1000 nM	> 1000 nM
O=C(CCc1c(-c2cccc(F)c2)[nH]c2c(F)cc(F)cc12)N[C@@H]1C(=O)NC[C@H]1O	< 250 nM	< 250 nM
O=C1C[C@H](NC(=O)CCc2c(-c3ccc(F)cc3)[nH]c3c(F)cc(F)cc23)C(=O)N1	250 nM	250 nM
O=C(CCc1c(-c2ccccc2)[nH]c2c(Br)cccc12)N[C@@H]1C(=O)NC[C@H]1O	< 250 nM	< 250 nM
O=C(CCc1c(-c2ccc(F)cc2)[nH]c2c(F)cccc12)N[C@H]1CCNC1=O	< 250 nM	< 250 nM

SMILES	IC50 (Apolipoprotein L1)	IC50 [1]
O=C(CCc1c(-c2ccc(F)cc2)[nH]c2ccc(F)cc12)NC1CCNC1=O (stereo not given)	< 250 nM	< 250 nM
N#Cc1cc(F)cc2c(CCC(=O)N[C@@H]3C(=O)NC[C@H]3O)c(-c3ccc(F)cc3)[nH]c12	< 250 nM	< 250 nM
O=C(CCc1c(-c2ccc(F)cc2)[nH]c2c(F)cc(F)cc12)N[C@@H]1CCNC1=O	250 nM	< 250 nM
O=C(CCc1c(-c2ccccc2)[nH]c2cc(F)ccc12)N[C@@H]1C(=O)NC[C@H]1O	< 250 nM	< 250 nM
O=C(CCc1c(-c2ccc(F)cc2)[nH]c2c(F)cc(Cl)cc12)N[C@@H]1C(=O)NC[C@H]1O	< 250 nM	< 250 nM
O=C(CCc1c(-c2ccccc2)[nH]c2c(F)cccc12)N[C@@H]1C(=O)NC[C@H]1O	< 250 nM	< 250 nM
Cc1ccc2[nH]c(-c3ccc(Br)cc3)c(CCC(=O)N[C@H]3CCNC3=O)c2c1	< 250 nM	< 250 nM
O=C(CCc1c(-c2ccccc2)[nH]c2ccc(F)cc12)N[C@H]1CCNC1=O	< 250 nM	< 250 nM
O=C(CCc1c(-c2ccc(F)c(F)c2)[nH]c2ccccc12)N[C@@H]1C(=O)NC[C@H]1O	< 250 nM	< 250 nM
Cc1c(F)c(F)cc2c(CCC(=O)N[C@@H]3C(=O)NC[C@H]3O)c(-c3ccccc3)[nH]c12	< 250 nM	< 250 nM
O=C(CCc1c(-c2ccc(F)cc2)[nH]c2c(Cl)cc(F)cc12)N[C@@H]1C(=O)NC[C@H]1O	< 250 nM	< 250 nM
O=C(CCc1c(-c2ccc(F)cc2)[nH]c2c(F)cc(C(F)(F)F)cc12)N[C@@H]1C(=O)NC[C@H]1O	< 250 nM	< 250 nM
Cc1ccc(-c2[nH]c3ccccc3c2CCC(=O)N[C@@H]2C(=O)NC[C@H]2O)c(F)c1	< 250 nM	< 250 nM
O=C1NC[C@@H](O)[C@@H]1NC(=O)C(F)(F)Cc1c(-c2ccc(F)cc2)[nH]c2c(F)cc(F)cc12	< 250 nM	< 250 nM
Cc1c(F)c(F)cc2c(CCC(=O)N[C@@H]3C(=O)NC[C@H]3O)c(-c3ccc(F)cc3)[nH]c12	< 250 nM	< 250 nM
O=C(CCc1c(-c2ccc(Cl)c(F)c2)[nH]c2ccccc12)N[C@@H]1C(=O)NC[C@H]1O	< 250 nM	< 250 nM
O=C(CCc1c(-c2ccc(F)cc2)[nH]c2c(Cl)cccc12)N[C@H]1CCNC1=O	< 250 nM	< 250 nM
O=C(CCc1c(-c2ccccc2)[nH]c2ccccc12)N[C@@H]1C(=O)NC[C@H]1O	< 250 nM	< 250 nM
O=C(CCc1c(-c2ccc(F)cc2)[nH]c2ccc(F)cc12)N[C@@H]1C(=O)NC[C@H]1O	< 250 nM	< 250 nM
O=C(CCc1c(-c2ccccc2)[nH]c2cc(F)c(F)cc12)N[C@@H]1C(=O)NC[C@H]1O	< 250 nM	< 250 nM
[2H]C([2H])(C(=O)N[C@@H]1C(=O)NC[C@H]1O)C([2H])([2H])c1c(-c2ccc(F)cc2)[nH]c2c(F)cc(F)cc12	< 250 nM	< 250 nM
O=C(CCc1c(-c2ccccc2)[nH]c2ccc(F)cc12)N[C@@H]1C(=O)NC[C@H]1O	< 250 nM	< 250 nM
COc1cc(F)cc2c(CCC(=O)N[C@@H]3C(=O)NC[C@H]3O)c(-c3ccc(F)cc3)[nH]c12	< 250 nM	< 250 nM
O=C(CCc1c(-c2ccc(F)cc2)[nH]c2c(F)cc(F)cc12)N[C@H]1C[C@H](CO)NC1=O	> 1000 nM	> 1000 nM

SMILES	IC50 (Apolipoprotein L1)	IC50 [1]
O=C(CCc1c(-c2ccccc2)[nH]c2c(C(F)(F)F)cccc12)N[C@@H]1C(=O)NC[C@H]1O	250 nM	> 1000 nM
N#Cc1ccc(-c2[nH]c3c(F)cc(F)cc3c2CCC(=O)N[C@H]2CCNC2=O)cc1	< 250 nM	< 250 nM
N#Cc1cc(F)c2[nH]c(-c3ccc(F)cc3)c(CCC(=O)N[C@H]3CCNC3=O)c2c1	> 1000 nM	> 1000 nM
O=C(CCc1c(-c2ccc(F)cc2)[nH]c2c(F)cccc12)N[C@@H]1C(=O)NC[C@H]1O	< 250 nM	< 250 nM
O=C(CCc1c(-c2ccc(F)cc2)[nH]c2ccc(O)cc12)N[C@H]1CCNC1=O	> 1000 nM	> 1000 nM
O=C(CCc1c(-c2ccc(F)cc2)[nH]c2c(F)cc(F)cc12)N[C@@H]1C(=O)NC[C@H]1O [INAXAPLIN]	< 250 nM	< 250 nM
O=C(CCc1c(-c2ccc(F)cc2)[nH]c2c(F)cc(F)cc12)N[C@H]1CCNC1=O	< 250 nM	< 250 nM
O=C1C[C@@H](NC(=O)CCc2c(-c3ccc(F)cc3)[nH]c3c(F)cc(F)cc23)C(=O)N1	250 nM	250 nM
O=C(CCc1c(-c2ccc(F)cc2)[nH]c2ccc(F)cc12)N[C@@H]1CCNC1=O	250 nM	250 nM
Cc1cc(F)c2[nH]c(-c3ccc(F)cc3)c(CCC(=O)N[C@@H]3C(=O)NC[C@H]3O)c2c1	< 250 nM	< 250 nM
CC1C[C@H](NC(=O)CCc2c(-c3ccc(F)cc3)[nH]c3c(F)cc(F)cc23)C(=O)N1 (stereo not given in full)	250 nM	250 nM
Cc1cc(-c2[nH]c3ccccc3c2CCC(=O)N[C@@H]2C(=O)NC[C@H]2O)ccc1F	< 250 nM	< 250 nM
O=C(CCc1c(-c2ccc(F)cc2)[nH]c2ccc(OCc3ccccc3)cc12)N[C@H]1CCNC1=O	250 nM	250 nM
N#Cc1ccc(-c2[nH]c3ccccc3c2CCC(=O)N[C@@H]2C(=O)NC[C@H]2O)cc1	< 250 nM	< 250 nM
O=C(CCc1c(-c2ccccc2)[nH]c2cc(F)cc(F)c12)N[C@@H]1C(=O)NC[C@H]1O	< 250 nM	< 250 nM
CN(C(=O)CCc1c(-c2ccc(F)cc2)[nH]c2ccc(F)cc12)C1CCNC1=O (stereo not given)	250 nM	250 nM
O=C(CCc1c(-c2ccccc2)[nH]c2ccc(Cl)cc12)N[C@@H]1C(=O)NC[C@H]1O	< 250 nM	< 250 nM
O=C(CCc1c(-c2ccccc2)[nH]c2c(F)c(F)c(F)cc12)N[C@@H]1C(=O)NC[C@H]1O	< 250 nM	< 250 nM
O=C(CCc1c(-c2ccc(Cl)cc2)[nH]c2ccccc12)N[C@@H]1C(=O)NC[C@H]1O	< 250 nM	< 250 nM
O=C(CCc1c(-c2ccc(C(F)(F)F)cc2)[nH]c2ccccc12)N[C@@H]1C(=O)NC[C@H]1O	< 250 nM	< 250 nM
O=C(CCc1c(-c2ccc(F)cc2)[nH]c2c(Cl)cccc12)N[C@@H]1C(=O)NC[C@H]1O	< 250 nM	< 250 nM
O=C(CCc1c(-c2ccc(F)c(F)c2)[nH]c2c(F)cc(F)cc12)N[C@@H]1C(=O)NC[C@H]1O	< 250 nM	< 250 nM
